{
  "source": "paper PMC7136958",
  "about": "“Targeting the pregnane X receptor using microbial metabolite mimicry” (EMBO Molecular Medicine, 2020)",
  "key": {"mice": {"system": "mice", "test": "30 Day toxicity study in mice", "assay_type": "in vivo, mouse", "procedure": "The LS180 cell line was used to assess cell cytotoxicity using the MTT (3‐(4,5‐dimethylthiazolyl‐2)‐2,5‐diphenyltetrazolium bromide) assay as previously described (Bartonkova et al, 2015, 2016). […] FKK6 was selected as a lead compound for assessment, given that it had the more favorable PXR‐selective ligand activity in cells. […] The mice were gavaged for ten consecutive days and necropsied on day 12 with the collection of blood (serum). […] Similarly, a 30‐day toxicity test was conducted in mice using FKK6 at an oral dose of 200 μM in 0.8% DMSO per day. We chose this dose to stay within the safe DMSO dose administered to mice over 30 days. On day 30, we necropsied the mice and collected blood (serum)."}, "NF-κB": {"system": "NF-κB", "test": "TNF-α-induced NF-κB reporter assay in LS174T PXR-KO cells", "conditions": "for NFkB NanoLuc luminescence, aver / NFkB %max: LS174T PXR-KO, EXP3; for NFkB %max: TNFa 5 ng/ml = 100", "text": "In early passage PXR‐KO cells, we used PXR and NF‐κB reporter‐co‐transfected and NF‐κB reporter‐transfected PXR‐KO cell line.\nCRISPR/Cas9‐mediated knockout cells were generated by Synthego Corporation (Redwood City, CA, USA). Briefly, cells were first tested negative for mycoplasma. Guide RNA was selected for high activity, specificity, and activity to create premature stop codons through frameshift mutations in the coding region via insertions and/or deletions (Indels) within exon 2 of the gene encoding human PXR (NR1I2 transcript ID ENST00000337940). […] To generate these cells, ribonucleoproteins (RNPs) containing the Cas9 protein and synthetic chemically modified sgRNA (Synthego) were electroporated into the cells using Synthego's optimized protocol. Editing efficiency is assessed upon recovery, 48 h post‐electroporation. Genomic DNA is extracted from a portion of the cells, PCR‐amplified, and sequenced using Sanger sequencing. The resulting chromatograms are processed using Synthego Inference of CRISPR Edits software (ice.synthego.com)."}, "[1]": {"system": "mutant PXR.1 (C285I/C301A)", "test": "PXR luciferase reporter assay in HEK293T cells, mutant PXR.1", "assay_type": "cell-based, human", "conditions": "10 μM, replicate wells", "procedure": "After 24‐h transfection using Lipofectamine® LTX ([…] of plasmid), cells were exposed to FKK5 for 24 h. […] The data are expressed as mean ± SD RLU (relative light units from luciferase assay) normalized to β‐Gal activity in the same well. Differences were tested using 2‐way ANOVA with Tukey's multiple comparison test, and P < 0.05 was considered significant (*)."}, "HDAC3": {"biological_target": "T1, HDAC3 (Homo sapiens, UniProt O15379)", "T1 construct": "purchased Reaction Biology Corp", "T1 sequence (O15379 whole entry)": "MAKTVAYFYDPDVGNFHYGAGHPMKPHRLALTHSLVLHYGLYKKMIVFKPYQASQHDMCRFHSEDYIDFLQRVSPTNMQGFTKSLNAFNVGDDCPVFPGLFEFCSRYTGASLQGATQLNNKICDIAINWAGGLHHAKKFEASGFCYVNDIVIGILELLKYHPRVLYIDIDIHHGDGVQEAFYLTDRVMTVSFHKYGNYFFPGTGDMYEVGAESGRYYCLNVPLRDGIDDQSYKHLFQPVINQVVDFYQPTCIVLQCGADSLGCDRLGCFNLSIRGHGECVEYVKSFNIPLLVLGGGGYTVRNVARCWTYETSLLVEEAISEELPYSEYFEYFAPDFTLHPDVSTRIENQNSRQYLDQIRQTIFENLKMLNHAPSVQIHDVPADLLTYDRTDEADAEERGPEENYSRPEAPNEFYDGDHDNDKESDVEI", "T1 sequence (Q9Y618 395-489 partner limits assumed)": "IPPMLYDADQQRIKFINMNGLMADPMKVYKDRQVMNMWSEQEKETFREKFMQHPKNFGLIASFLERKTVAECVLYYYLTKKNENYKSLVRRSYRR", "test": "HDAC fluorescent activity assay", "assay_type": "biochemical", "conditions": "substrate Peptide (Ac), replicates", "procedure": "(§1) The following […] assays (HDAC, SIRT1, PRMT1, PARP1, p300, pCAF) were performed by Reaction Biology Corp. FKK6 was screened at a single concentration of 10 μM in duplicate in two separate experiments. The appropriate controls for the individual assays are published. […]\n(§2) The Histone Deacetylase (HDAC) fluorescent activity assay (HDAC1-3) is based on the using 2X purified human enzyme mixed with the reaction buffer (50 mM Tris-HCl pH 8, 137 mM NaCl, 2.7 mM KCl, and 1 mM MgCl2, 1 mg/mL fresh BSA and 1% fresh DMSO) and then compounds (in 100% DMSO) are titrated in using Acoustic Technology.\n(§3) The 2X HDAC substrate is a fluorogenic acetylated peptide from p53 (residues 379 - 38 2 RHKK(Ac)AMC) which is mixed in with the enzyme-compound complex and incubated for 1-2 h at 30 °C. In the development step, a proprietary developer with trichostatin A (or TMP269) is added to stop the reaction and to generate fluorescent color which is read using an EnVision Multilabel Plate Reader (Perkin Elmer) (Ex 360 nm/ Em 460 nm). For all enzyme activity assays, the percentage of enzyme activity (relative to DMSO controls) and IC50 values were calculated using GraphPad Prism 4 program (sigmoidal dose response equations). […]\n(§4) SMCT solution (0.32 M sucrose, 10 mM Tris -HCl, 1 mM MgCl2, 1 mM CaCl2, 0.1 mM PMSF and freshly prepared 1 mM DTT at pH 7.4) once in the presence of 0.25% Triton X-100 and once in its"}, "HDAC1": {"biological_target": "T2, HDAC1 (Homo sapiens, UniProt Q13547)", "T2 construct": "purchased Reaction Biology Corp", "T2 sequence (Q13547 whole entry)": "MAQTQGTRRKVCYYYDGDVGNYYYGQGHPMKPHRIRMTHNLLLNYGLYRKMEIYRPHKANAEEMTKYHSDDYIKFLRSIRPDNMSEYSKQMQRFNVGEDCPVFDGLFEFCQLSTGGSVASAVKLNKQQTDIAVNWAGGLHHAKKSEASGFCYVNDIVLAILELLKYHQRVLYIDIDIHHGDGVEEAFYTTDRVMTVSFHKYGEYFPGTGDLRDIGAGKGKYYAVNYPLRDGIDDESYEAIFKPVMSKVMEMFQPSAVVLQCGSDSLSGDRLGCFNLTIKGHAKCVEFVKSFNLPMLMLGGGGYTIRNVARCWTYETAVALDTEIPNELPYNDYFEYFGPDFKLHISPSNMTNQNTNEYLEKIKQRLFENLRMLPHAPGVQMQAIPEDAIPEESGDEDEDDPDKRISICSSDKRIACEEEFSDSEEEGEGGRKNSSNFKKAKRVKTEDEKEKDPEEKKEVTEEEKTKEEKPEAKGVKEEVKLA", "test": "HDAC fluorescent activity assay", "assay_type": "biochemical", "conditions": "substrate Peptide (Ac), replicates", "procedure": "as §1, §2, §3, §4"}, "HDAC2": {"biological_target": "T3, HDAC2 (Homo sapiens, UniProt Q92769)", "T3 construct": "purchased Reaction Biology Corp", "T3 sequence (Q92769 whole entry)": "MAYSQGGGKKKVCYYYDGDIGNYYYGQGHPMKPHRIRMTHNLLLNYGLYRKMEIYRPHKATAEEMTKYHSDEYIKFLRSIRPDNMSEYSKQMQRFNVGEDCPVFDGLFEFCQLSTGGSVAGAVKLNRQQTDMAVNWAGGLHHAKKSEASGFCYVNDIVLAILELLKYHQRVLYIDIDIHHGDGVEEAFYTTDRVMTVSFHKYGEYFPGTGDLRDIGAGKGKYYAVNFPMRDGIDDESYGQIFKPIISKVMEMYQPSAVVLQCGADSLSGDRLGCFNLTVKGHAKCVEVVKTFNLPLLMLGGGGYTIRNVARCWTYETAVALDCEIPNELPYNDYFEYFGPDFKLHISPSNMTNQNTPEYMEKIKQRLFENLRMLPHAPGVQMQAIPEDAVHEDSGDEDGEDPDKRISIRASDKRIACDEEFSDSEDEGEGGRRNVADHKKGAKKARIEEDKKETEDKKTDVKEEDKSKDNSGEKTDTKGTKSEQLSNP", "test": "HDAC fluorescent activity assay", "assay_type": "biochemical", "conditions": "substrate Peptide (Ac), replicates", "procedure": "as §1, §2, §3, §4"}, "[2]": {"test": "Solubility of FKK6 in 10% DMSO", "assay_type": "physicochemical", "conditions": "aqueous, aqueous with cosolvent or surfactant or cyclodextrin, room temperature, read-out: maximal solubility (saturation concentration)", "procedure": "FKK6 was solubilized to saturation concentrations (~ 500 μM) at room temperature in 10% DMSO (DMSO maximum tolerated dose in mice is ~ 2.5 g/kg/day for 35 consecutive days) (Caujolle et al, 1967a; Brayton, 1986)."}, "[3]": {"conditions": "oral 200 μM in 0.8% DMSO per day, 30 days"}, "[4]": {"conditions": "read-out: % Enzyme Activity to DMSO controls"}},
  "note": "Where “and” joins values, the source holds several entries; their conditions need not be identical. Equal entries are not always repeated.",
  "data": [
    {"smiles": "C#CCC(O)(c1ccncc1)c1cc2ccccc2n1S(=O)(=O)c1ccccc1", "note": "(centres unmarked) [FKK6]", "values": [
      {"measurement": "Histopathology: Liver", "setting": "mice; 30 day, n=6", "result": "Mild perivascular lymphohistiocytic aggregates (n=4)"},
      {"measurement": "Histopathology: Lung", "setting": "mice; 30 day, n=6", "result": "Mild leukocytes (n=2)"},
      {"measurement": "Histopathology: Spleen", "setting": "mice; 30 day, n=6", "result": "Mild lymphoid hyperplasia (n=2)"},
      {"measurement": "serum chemistry profiles", "setting": "mice; [3]", "result": "did not significantly alter serum chemistry profiles"},
      {"measurement": "tissue pathology vs vehicle", "setting": "mice; [3]", "result": "did not significantly alter serum chemistry profiles (Fig EV3C and D) or impact tissue pathology"},
      {"measurement": "NFkB NanoLuc luminescence, aver", "setting": "NF-κB; 1 μM + TNFα 5 ng/ml", "result": 70912.7},
      {"measurement": "NFkB %max", "setting": "NF-κB; 1 μM + TNFα 5 ng/ml", "result": "128.7% and 128.74%"},
      {"measurement": "NFkB NanoLuc luminescence, aver", "setting": "NF-κB; 10 μM + TNFα 5 ng/ml", "result": 56963.0},
      {"measurement": "NFkB %max", "setting": "NF-κB; 10 μM + TNFα 5 ng/ml", "result": "103.4% and 103.41%"},
      {"measurement": "NFkB NanoLuc luminescence, aver", "setting": "NF-κB; 25 μM + TNFα 5 ng/ml", "result": 50715.5},
      {"measurement": "NFkB %max", "setting": "NF-κB; 25 μM + TNFα 5 ng/ml", "result": "92.1% and 92.07%"},
      {"measurement": "NF-κB reporter activity", "setting": "NF-κB; TNF-exposed PXR-KO cells", "result": "neither rifampicin nor FKK6 repressed"},
      {"measurement": "PXR reporter activity, RLU/B-Gal", "setting": "[1]", "result": "unable to activate mutant PXR and 17076.9 RLU/B-Gal and 15814.1 RLU/B-Gal and 17887 RLU/B-Gal and 19102.1 RLU/B-Gal"},
      {"measurement": "% Enzyme Activity to DMSO controls", "setting": "HDAC3; 10 μM", "result": "116.9% and 114.05% and 107.82%"},
      {"measurement": "remaining activity at 10 µM", "setting": "HDAC3; [4]", "result": 122, "unit": "%"},
      {"measurement": "% Enzyme Activity to DMSO controls", "setting": "HDAC1; 10 μM", "result": "101.46% and 89.76% and 86.7%"},
      {"measurement": "remaining activity at 10 µM", "setting": "HDAC1; [4]", "result": 106, "unit": "%"},
      {"measurement": "% Enzyme Activity to DMSO controls", "setting": "HDAC2; 10 μM", "result": "78.19% and 83.24% and 88.71%"},
      {"measurement": "remaining activity at 10 µM", "setting": "HDAC2; [4]", "result": 86.3, "unit": "%"},
      {"measurement": "solubility", "setting": "[2]", "result": "~500", "unit": "µM"}
    ]}
  ]
}
